Test [1] has as its target T1, bovine beta-2 adrenoceptor (Bos taurus, UniProt Q28044).
T1 construct: expressed in transfected cells; host or cells: CHO cells
In words: cAMP assay in CHO cells transfected with the bovine beta-2 adrenoceptor (DiscoveRx Hit Hunter cAMP II). Format: cell-based. The note with it: CHO cells transfected with bovine beta-2 adrenoceptor, 30 minutes incubation with compound. In a few lines: (§1)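 CHO cells expressing porcine or bovine β2 receptor pre-incubated 30 min with 0.5 mM IBMX, then exposed to compound (5×10^−12 to 10^−5 M) for 30 min at 37 °C. cAMP read by enzyme-fragment complementation kit; duplicate samples, EC50 from curve fitting.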
(In general: cAMP levels reflect the balance of adenylyl cyclase and phosphodiesterase activity.)

The target of test [2] is T2, porcine beta-2 adrenoceptor (Sus scrofa, UniProt Q28997).
T2 construct: expressed in transfected cells; host or cells: CHO cells
The test can be described thus: cAMP assay in CHO cells transfected with the porcine beta-2 adrenoceptor (DiscoveRx Hit Hunter cAMP II). Format: cell-based. The note with it: CHO cells transfected with porcine beta-2 adrenoceptor, 30 minutes incubation with compound. In a few lines:
as §1

Molecules are shown by their SMILES.

T2 sequence (Q28997 whole entry): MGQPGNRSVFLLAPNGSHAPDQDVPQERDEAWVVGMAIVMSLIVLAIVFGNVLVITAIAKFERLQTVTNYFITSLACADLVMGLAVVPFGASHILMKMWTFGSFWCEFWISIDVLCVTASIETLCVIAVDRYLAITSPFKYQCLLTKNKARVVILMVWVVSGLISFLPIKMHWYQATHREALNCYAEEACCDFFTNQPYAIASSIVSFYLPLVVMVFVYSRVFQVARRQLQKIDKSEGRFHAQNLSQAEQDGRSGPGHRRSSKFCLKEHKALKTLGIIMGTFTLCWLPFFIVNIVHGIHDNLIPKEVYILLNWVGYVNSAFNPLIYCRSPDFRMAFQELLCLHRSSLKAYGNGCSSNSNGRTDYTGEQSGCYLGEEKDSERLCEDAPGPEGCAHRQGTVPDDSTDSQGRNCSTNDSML
T1 sequence (Q28044 whole entry): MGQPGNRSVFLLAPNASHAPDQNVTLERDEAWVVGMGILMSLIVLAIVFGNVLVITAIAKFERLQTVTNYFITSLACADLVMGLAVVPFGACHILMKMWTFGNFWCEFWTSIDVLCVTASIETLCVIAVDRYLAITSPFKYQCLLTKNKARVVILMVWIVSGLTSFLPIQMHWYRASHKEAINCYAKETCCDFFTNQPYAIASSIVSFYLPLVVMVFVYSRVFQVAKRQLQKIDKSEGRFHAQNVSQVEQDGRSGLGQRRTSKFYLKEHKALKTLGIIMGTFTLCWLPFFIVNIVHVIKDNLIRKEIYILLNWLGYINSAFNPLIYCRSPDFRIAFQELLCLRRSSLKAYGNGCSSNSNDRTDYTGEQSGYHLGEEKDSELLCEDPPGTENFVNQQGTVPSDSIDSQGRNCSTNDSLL

A word on the EC50: it is the concentration needed to bring the measured effect to its halfway point. As for `C[C@H](CCc1cnco1)N[C@@H]1CCn2c(=O)[nH]c3cccc(c32)[C@H]1O` [Example 66, (6R,7R)-7-hydroxy-6-{[(1R)-1-methyl-3-(1,3-oxazol-5-yl)propyl]amino}-4,5,6,7-tetrahydroimidazo[4,5,1-jk][1]benzazepin-2(1H)-one], the EC50 in test [1] worked out at 18.7 nM; in test [2] it was 6.2 nM.
Taken in the same sequence, the figures for `COc1ncc(CC[C@@H](C)N[C@@H]2CCn3c(=O)[nH]c4cccc(c43)[C@H]2O)s1` [Example 67, (6R,7R)-7-hydroxy-6-{[(1R)-3-(2-methoxy-1,3-thiazol-5-yl)-1-methylpropyl]amino}-4,5,6,7-tetrahydroimidazo[4,5,1-jk][1]benzazepin-2(1H)-one] were 2.7 nM and 2.7 nM.

These data come from US20080267942A1, “BENZAZEPIN-2(1H)-ONE DERIVATIVES” (Pfizer Limited, priority 2006, published 2008).
